According to patent US20150353495A1 (PORTOLA PHARMACEUTICALS, INC., priority 2010, published 2015):
pIC50: −log10 of the molar value.

How the values were obtained:
Format in all cases: biochemical
JAK2 = molecular target: T1, JAK2 (Homo sapiens, UniProt O60674); experiment: Z'-LYTE kinase assay JAK2
T1 construct: 5 μl of catalytic domain recombinant Kinase enzyme+Tyr peptide substrate (Invitrogen, CA); purchased Invitrogen
In short: (§1)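 Z′-LYTE FRET, Tyr6 peptide, recombinant catalytic domain + ATP, 1 h RT, 1% DMSO final, duplicates; protease development 1 h RT; fluorescence read.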

JAK3 = molecular target: T2, JAK3 (Homo sapiens, UniProt P52333); experiment: Z'-LYTE kinase assay JAK3
T2 construct: 5 μl of catalytic domain recombinant Kinase enzyme+Tyr peptide substrate (Invitrogen, CA); purchased Invitrogen
T2 sequence (P52333 822-1111 limits assumed): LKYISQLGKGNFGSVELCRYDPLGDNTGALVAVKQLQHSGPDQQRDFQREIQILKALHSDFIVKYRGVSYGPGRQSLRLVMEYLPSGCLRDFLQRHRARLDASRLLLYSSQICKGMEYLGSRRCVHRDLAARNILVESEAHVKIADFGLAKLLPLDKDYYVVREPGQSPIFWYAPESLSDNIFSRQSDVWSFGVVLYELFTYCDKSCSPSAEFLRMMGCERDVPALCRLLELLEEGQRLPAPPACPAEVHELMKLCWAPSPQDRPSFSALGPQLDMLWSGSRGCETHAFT
In short: as §1

JAK1 = molecular target: T3, JAK1 (Homo sapiens, UniProt P23458); experiment: Z'-LYTE kinase assay JAK1
T3 construct: 5 μl of catalytic domain recombinant Kinase enzyme+Tyr peptide substrate (Invitrogen, CA); purchased Invitrogen
T3 sequence (P23458 875-1153 limits assumed): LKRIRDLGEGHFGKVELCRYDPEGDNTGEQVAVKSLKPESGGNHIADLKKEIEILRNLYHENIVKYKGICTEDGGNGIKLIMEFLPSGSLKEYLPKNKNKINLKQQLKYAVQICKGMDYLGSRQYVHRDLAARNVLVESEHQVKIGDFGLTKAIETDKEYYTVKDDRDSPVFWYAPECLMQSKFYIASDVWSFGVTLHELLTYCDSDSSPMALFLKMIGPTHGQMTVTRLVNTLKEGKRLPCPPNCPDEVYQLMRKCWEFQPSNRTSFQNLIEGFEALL
In short: as §1

T1 sequence (O60674 849-1124 limits assumed): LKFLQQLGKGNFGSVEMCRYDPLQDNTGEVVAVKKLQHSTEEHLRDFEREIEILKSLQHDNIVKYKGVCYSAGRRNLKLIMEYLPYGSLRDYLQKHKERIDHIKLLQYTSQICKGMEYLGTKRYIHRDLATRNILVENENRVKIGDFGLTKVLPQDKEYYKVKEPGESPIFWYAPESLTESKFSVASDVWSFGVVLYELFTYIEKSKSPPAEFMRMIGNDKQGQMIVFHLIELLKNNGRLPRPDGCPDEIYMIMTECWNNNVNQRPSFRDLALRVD

Row | SMILES | pIC50 (JAK2) | pIC50 (JAK3) | pIC50 (JAK1)
1 | CN1CCC(C(=O)Nc2cc(Nc3cc(NC4(c5ccccc5)CC4)c(C(N)=O)cn3)ccc2Cl)CC1 [Example 136, 6-(4-chloro-3-(1-methylpiperidine-4-carboxamido)phenylamino)-4-(1-phenylcyclopropylamino)nicotinamide] | < 6.00 | 7.00 to 8.00 | < 6.00
2 | CC(=O)N1CC(c2ccc(Nc3cc(NCc4ccccc4)c(C(N)=O)cn3)cc2)C1 [Example 324, 6-(4-(1-acetylazetidin-3-yl)phenylamino)-4-(benzylamino)nicotinamide] | 6.00 to 7.00 | 8.00 to 9.00 | 6.00 to 7.00
3 | CCS(=O)(=O)N1CCC[C@H](CNc2cc(Nc3ccc(OC)cc3)ncc2C(N)=O)C1 [Example 289, (R)-4-((1-(ethylsulfonyl)piperidin-3-yl)methylamino)-6-(4-methoxyphenylamino)nicotinamide] | 6.00 to 7.00 | 7.00 to 8.00 | < 6.00
4 | CC(C)CNc1cc(Nc2ccc(C3CCOCC3)cc2)ncc1C(N)=O [Example 156, 4-(isobutylamino)-6-(4-(tetrahydro-2H-pyran-4-yl)phenylamino)nicotinamide] | 6.00 to 7.00 | 6.00 to 7.00 | 6.00 to 7.00
5 | CCS(=O)(=O)N1CCC(CNc2cc(Nc3ccc(C4CCOCC4)cc3)ncc2C(N)=O)CC1 [Example 160, 4-((1-(ethylsulfonyl)piperidin-4-yl)methylamino)-6-(4-(tetrahydro-2H-pyran-4-yl)phenylamino)nicotinamide] | < 6.00 | < 6.00 | < 6.00
6 | CN(C)C(=O)c1ccc(Nc2cc(NCc3ccccc3)c(C(N)=O)cn2)cc1F [Example 273, 4-(benzylamino)-6-(4-(dimethylcarbamoyl)-3-fluorophenylamino)nicotinamide] | 6.00 to 7.00 | 7.00 to 8.00 | < 6.00
7 | NC(=O)c1cnc(Nc2ccc(CC(=O)N3CCOCC3)cc2)cc1NCc1ccccc1 [Example 330, 4-(benzylamino)-6-(4-(2-morpholino-2-oxoethyl)phenylamino)nicotinamide] | 6.00 to 7.00 | 8.00 to 9.00 | 6.00 to 7.00
8 | NC(=O)c1cnc(Nc2ccc(N3CCOCC3)cc2)cc1NC1(c2ccccc2)CC1 [Example 125, 6-(4-morpholinophenylamino)-4-(1-phenylcyclopropylamino)-nicotinamide] | 6.00 to 7.00 | 7.00 to 8.00 | < 6.00
9 | Cc1cc(Nc2cc(NCc3cccc4[nH]ccc34)c(C(N)=O)cn2)ccc1C(=O)N(C)C [Example 295, 4-((1H-indol-4-yl)methylamino)-6-(4-(dimethylcarbamoyl)-3-methylphenylamino)nicotinamide] | 8.00 to 9.00 | > 9.00 | 8.00 to 9.00
10 | COc1ccc(Nc2cc(NC[C@H]3CCCN(S(=O)(=O)C4CC4)C3)c(C(N)=O)cn2)cc1 [Example 292, (R)-4-((1-(cyclopropylsulfonyl)piperidin-3-yl)methylamino)-6-(4-methoxyphenylamino)nicotinamide] | < 6.00 | 6.00 to 7.00 | < 6.00
11 | NC(=O)c1cnc(Nc2ccc(OC(F)(F)F)cc2)cc1NCc1cncc(F)c1 [Example 310] | < 6.00 | 6.00 to 7.00 | < 6.00
12 | CCC(=O)N1CCC(c2ccc(Nc3cc(NCc4ncccn4)c(C(N)=O)cn3)cc2)CC1 [Example 180, 6-(4-(1-propionylpiperidin-4-yl)phenylamino)-4-(pyrimidin-2-ylmethylamino)nicotinamide] | < 6.00 | 6.00 to 7.00 | < 6.00
13 | NC(=O)c1cnc(Nc2ccc(C3CCOCC3)cc2)cc1NCC1CC1 [Example 153, 4-(cyclopropylmethylamino)-6-(4-(tetrahydro-2H-pyran-4-yl)phenylamino)nicotinamide] | 6.00 to 7.00 | 6.00 to 7.00 | < 6.00
14 | CC(=O)N1CCC[C@H](CNc2cc(Nc3ccc(C(=O)N(C)C)c(C(F)(F)F)c3)ncc2C(N)=O)C1 [Example 274, (R)-4-((1-acetylpiperidin-3-yl)methylamino)-6-(4-(dimethylcarbamoyl)-3-(trifluoromethyl)phenylamino)nicotinamide] | < 6.00 | 6.00 to 7.00 | < 6.00
15 | NC(=O)c1cnc(Nc2ccc(OCC(=O)N3CCOCC3)cc2)cc1NC1(c2ccccc2)CC1 [Example 133, 6-(4-(2-morpholino-2-oxoethoxy)phenylamino)-4-(1-phenylcyclopropylamino)nicotinamide] | 6.00 to 7.00 | 7.00 to 8.00 | < 6.00
16 | COc1ccc(Nc2cc(NCc3ccccc3)c(C(N)=O)cn2)cc1Cl [Example 332, 4-(benzylamino)-6-(3-chloro-4-methoxyphenylamino)nicotinamide] | < 6.00 | 7.00 to 8.00 | < 6.00
17 | NC(=O)c1cnc(Nc2cccc(C3CCOCC3)c2)cc1NCc1cncc(F)c1 [Example 208, 4-((5-fluoropyridin-3-yl)methylamino)-6-(3-(tetrahydro-2H-pyran-4-yl)phenylamino)nicotinamide] | 7.00 to 8.00 | 8.00 to 9.00 | 6.00 to 7.00
18 | COC[C@@H](Nc1cc(Nc2cccc(N3CCOCC3)c2)ncc1C(N)=O)c1ccccc1 [Example 261, (S)-4-(2-methoxy-1-phenylethylamino)-6-(3-morpholinophenylamino)nicotinamide] | 6.00 to 7.00 | 7.00 to 8.00 | < 6.00
19 | CN(C)C(=O)c1cccc(Nc2cc(NCC3CCCC3)c(C(N)=O)cn2)c1 [Example 95, 4-(cyclopentylmethylamino)-6-(3-(dimethylcarbamoyl)phenylamino)nicotinamide] | 6.00 to 7.00 | 7.00 to 8.00 | 6.00 to 7.00
20 | COc1ccc(Nc2cc(NC[C@H]3CCCN(C(C)=O)C3)c(C(N)=O)cn2)cc1 [Example 54] | 6.00 to 7.00 | 7.00 to 8.00 | < 6.00
21 | CN(C)C(=O)c1ccc(Nc2cc(NCc3cccc4cc[nH]c34)c(C(N)=O)cn2)cc1 [Example 288, 4-((1H-indol-7-yl)methylamino)-6-(4-(dimethylcarbamoyl)phenylamino)nicotinamide] | 7.00 to 8.00 | 8.00 to 9.00 | < 6.00
22 | COc1ccc(Nc2cc(NCc3cncnc3)c(C(N)=O)cn2)cc1 [Example 286, 6-(4-methoxyphenylamino)-4-(pyrimidin-5-ylmethylamino)nicotinamide] | < 6.00 | 6.00 to 7.00 | < 6.00

Now from value to compound:

Row | pIC50 (JAK2) | pIC50 (JAK3) | pIC50 (JAK1) | SMILES
23 | 7.00 to 8.00 | 8.00 to 9.00 | < 6.00 | Cc1cc(Nc2cc(NCc3cccc4cc[nH]c34)c(C(N)=O)cn2)ccc1C(=O)N1CCC1 [Example 463, 4-((1H-indol-7-yl)methylamino)-6-(4-(azetidine-1-carbonyl)-3-methylphenylamino)nicotinamide]
24 | 6.00 to 7.00 | 7.00 to 8.00 | 6.00 to 7.00 | CN(C(=O)C1CC1)c1ccc(Nc2cc(NCc3cccc4ccsc34)c(C(N)=O)cn2)cc1 [Example 467, 4-(benzo[b]thiophen-7-ylmethylamino)-6-(4-(N-methylcyclopropanecarboxamido)phenylamino)nicotinamide]
25 | 6.00 to 7.00 | 8.00 to 9.00 | < 6.00 | COC(=O)N(C)c1ccc(Nc2cc(NCc3cccc4ccsc34)c(C(N)=O)cn2)cc1 [Example 465, methyl 4-(4-(benzo[b]thiophen-7-ylmethylamino)-5-carbamoylpyridin-2-ylamino)phenyl(methyl)carbamate]
26 | 6.00 to 7.00 | 7.00 to 8.00 | < 6.00 | CC(=O)N(C)c1ccc(Nc2cc(NCc3cccc(F)n3)c(C(N)=O)cn2)cc1 [Example 485, 4-((6-fluoropyridin-2-yl)methylamino)-6-(4-(N-methylacetamido)phenylamino)nicotinamide]
27 | 6.00 to 7.00 | 8.00 to 9.00 | 6.00 to 7.00 | CN(C)C(=O)N1CC(c2ccc(Nc3cc(NCc4ccccc4)c(C(N)=O)cn3)cc2)C1 [Example 337, 4-(benzylamino)-6-(4-(1-(dimethylcarbamoyl)azetidin-3-yl)phenylamino)nicotinamide]
28 | 7.00 to 8.00 | 8.00 to 9.00 | 7.00 to 8.00 | CCC(=O)N(C)c1ccc(Nc2cc(NCc3cccc4[nH]ccc34)c(C(N)=O)cn2)cc1 [Example 475, 4-((1H-indol-4-yl)methylamino)-6-(4-(N-methylpropionamido)phenylamino)nicotinamide]
29 | 6.00 to 7.00 | 7.00 to 8.00 | < 6.00 | CC(=O)N1CCC[C@H](CNc2cc(Nc3ccc(C(=O)N(C)C)c(Cl)c3)ncc2C(N)=O)C1 [Example 442, (R)-4-((1-acetylpiperidin-3-yl)methylamino)-6-(3-chloro-4-(dimethylcarbamoyl)phenylamino)nicotinamide]
30 | 6.00 to 7.00 | 7.00 to 8.00 | 6.00 to 7.00 | CC(=O)Nc1ccc(Nc2cc(NCc3cccc(F)n3)c(C(N)=O)cn2)cc1 [Example 486, 6-(4-acetamidophenylamino)-4-((6-fluoropyridin-2-yl)methylamino)nicotinamide]
31 | 7.00 to 8.00 | 8.00 to 9.00 | 7.00 to 8.00 | CN(C(=O)C1CC1)c1ccc(Nc2cc(NCc3cccc4[nH]ccc34)c(C(N)=O)cn2)cc1 [Example 476, 4-((1H-indol-4-yl)methylamino)-6-(4-(N-methylcyclopropanecarboxamido)phenylamino)nicotinamide]
32 | 7.00 to 8.00 | > 9.00 | 6.00 to 7.00 | Cc1cc(Nc2cc(NCc3cccc(F)c3F)c(C(N)=O)cn2)ccc1C(=O)N1CCCC1 [Example 456, 4-(2,3-difluorobenzylamino)-6-(3-methyl-4-(pyrrolidine-1-carbonyl)phenylamino)nicotinamide]
33 | 6.00 to 7.00 | 7.00 to 8.00 | < 6.00 | CC(=O)N1CCN(c2cccc(Nc3cc(NC4(c5ccccc5)CC4)c(C(N)=O)cn3)c2)CC1 [Example 371, 6-(3-(4-acetylpiperazin-1-yl)phenylamino)-4-(1-phenylcyclopropylamino)nicotinamide]
